Data reported in ChEMBL document CHEMBL1275492, “In vitro activity of ceftobiprole against pathogens from two phase 3 clinical trials of complicated skin and skin structure infections” (2008).

Assays:
Type in all cases: functional
[1] = tested on: Pseudomonas aeruginosa; test: Antibacterial activity against Pseudomonas aeruginosa obtained from complicated skin and skin structure infections by agar dilution method
[2] = tested on: Acinetobacter baumannii; test: Antibacterial activity against Acinetobacter baumannii obtained from complicated skin and skin structure infections by agar dilution method
[3] = tested on: Pseudomonas fluorescens; test: Antibacterial activity against Pseudomonas fluorescens obtained from complicated skin and skin structure infections by agar dilution method
[4] = tested on: Stenotrophomonas maltophilia; test: Antibacterial activity against Stenotrophomonas maltophilia obtained from complicated skin and skin structure infections by agar dilution method
[5] = tested on: Klebsiella aerogenes; test: Antibacterial activity against Enterobacter aerogenes obtained from complicated skin and skin structure infections by agar dilution method
[6] = tested on: Klebsiella oxytoca; test: Antibacterial activity against Klebsiella oxytoca obtained from complicated skin and skin structure infections by agar dilution method
[7] = tested on: Staphylococcus aureus; test: Antibacterial activity against Staphylococcus aureus obtained from complicated skin and skin structure infections by agar dilution method
[8] = tested on: Staphylococcus aureus; test: Antibacterial activity against methicillin resistant Staphylococcus aureus obtained from complicated skin and skin structure infections by agar dilution method
[9] = tested on: Staphylococcus aureus; test: Antibacterial activity against methicillin susceptible Staphylococcus aureus obtained from complicated skin and skin structure infections by agar dilution method
[10] = tested on: Staphylococcus epidermidis; test: Antibacterial activity against coagulase-negative Staphylococcus epidermidis obtained from complicated skin and skin structure infections by agar dilution method
[11] = tested on: Staphylococcus haemolyticus; test: Antibacterial activity against coagulase-negative Staphylococcus haemolyticus obtained from complicated skin and skin structure infections by agar dilution method
[12] = tested on: Staphylococcus lugdunensis; test: Antibacterial activity against coagulase-negative Staphylococcus lugdunensis obtained from complicated skin and skin structure infections by agar dilution method
[13] = tested on: Staphylococcus hominis; test: Antibacterial activity against coagulase-negative Staphylococcus hominis obtained from complicated skin and skin structure infections by agar dilution method
[14] = tested on: Staphylococcus capitis; test: Antibacterial activity against coagulase-negative Staphylococcus capitis obtained from complicated skin and skin structure infections by agar dilution method
[15] = tested on: Staphylococcus saprophyticus; test: Antibacterial activity against coagulase-negative Staphylococcus saprophyticus obtained from complicated skin and skin structure infections by agar dilution method
[16] = tested on: Staphylococcus cohnii; test: Antibacterial activity against coagulase-negative Staphylococcus cohnii obtained from complicated skin and skin structure infections by agar dilution method
[17] = tested on: Mammaliicoccus sciuri; test: Antibacterial activity against coagulase-negative Staphylococcus sciuri obtained from complicated skin and skin structure infections by agar dilution method
[18] = tested on: Staphylococcus warneri; test: Antibacterial activity against coagulase-negative Staphylococcus warneri obtained from complicated skin and skin structure infections by agar dilution method
[19] = tested on: Staphylococcus lugdunensis; test: Antibacterial activity against methicillin-resistant, oxacillin-susceptible, coagulase-negative, mecA-positive Staphylococcus lugdunensis obtained from complicated skin and skin structure infections by agar dilution method
[20] = tested on: Staphylococcus; test: Antibacterial activity against methicillin-susceptible, coagulase-negative Staphylococcus obtained from complicated skin and skin structure infections by agar dilution method
[21] = tested on: Enterococcus faecalis; test: Antibacterial activity against Enterococcus faecalis obtained from complicated skin and skin structure infections by agar dilution method
[22] = tested on: Enterococcus faecium; test: Antibacterial activity against Enterococcus faecium obtained from complicated skin and skin structure infections by agar dilution method
[23] = tested on: Streptococcus agalactiae; test: Antibacterial activity against Streptococcus agalactiae obtained from complicated skin and skin structure infections by agar dilution method
[24] = tested on: Streptococcus pyogenes; test: Antibacterial activity against Streptococcus pyogenes obtained from complicated skin and skin structure infections by agar dilution method
[25] = Antibacterial activity against Streptococcus sp. 'group C' obtained from complicated skin and skin structure infections by agar dilution method
[26] = Antibacterial activity against Streptococcus sp. 'group G' obtained from complicated skin and skin structure infections by agar dilution method
[27] = tested on: Streptococcus constellatus; test: Antibacterial activity against Streptococcus constellatus obtained from complicated skin and skin structure infections by agar dilution method
[28] = tested on: Streptococcus mitis; test: Antibacterial activity against Streptococcus mitis obtained from complicated skin and skin structure infections by agar dilution method
[29] = tested on: Staphylococcus intermedius; test: Antibacterial activity against Staphylococcus intermedius obtained from complicated skin and skin structure infections by agar dilution method
[30] = tested on: Aerococcus viridans; test: Antibacterial activity against Aerococcus viridans obtained from complicated skin and skin structure infections by agar dilution method
[31] = tested on: Bacillus; test: Antibacterial activity against Bacillus spp. obtained from complicated skin and skin structure infections by agar dilution method
[32] = tested on: Gemella morbillorum; test: Antibacterial activity against Gemella morbillorum obtained from complicated skin and skin structure infections […]
[33] = tested on: Gemella; test: Antibacterial activity against Gemella spp. obtained from complicated skin and skin structure infections by agar dilution method
[34] = tested on: Lactococcus lactis; test: Antibacterial activity against Lactococcus lactis obtained from complicated skin and skin structure infections by agar dilution method
[35] = tested on: Micrococcus; test: Antibacterial activity against Micrococcus spp. obtained from complicated skin and skin structure infections by agar dilution method
[36] = tested on: Citrobacter braakii; test: Antibacterial activity against Citrobacter braakii obtained from complicated skin and skin structure infections by agar dilution method
[37] = tested on: Citrobacter freundii; test: Antibacterial activity against Citrobacter freundii obtained from complicated skin and skin structure infections by agar dilution method
[38] = tested on: Enterobacter amnigenus; test: Antibacterial activity against Enterobacter amnigenus obtained from complicated skin and skin structure infections by agar dilution method; settings: Lelliottia amnigena
[39] = tested on: Enterobacter cloacae; test: Antibacterial activity against Enterobacter cloacae obtained from complicated skin and skin structure infections by agar dilution method
[40] = tested on: Escherichia coli; test: Antibacterial activity against Escherichia coli obtained from complicated skin and skin structure infections by agar dilution method
[41] = tested on: Klebsiella pneumoniae; test: Antibacterial activity against Klebsiella pneumoniae obtained from complicated skin and skin structure infections by agar dilution method
[42] = tested on: Morganella morganii; test: Antibacterial activity against Morganella morganii obtained from complicated skin and skin structure infections by agar dilution method
[43] = tested on: Proteus mirabilis; test: Antibacterial activity against Proteus mirabilis obtained from complicated skin and skin structure infections by agar dilution method
[44] = tested on: Proteus penneri; test: Antibacterial activity against Proteus penneri obtained from complicated skin and skin structure infections by agar dilution method
[45] = tested on: Proteus vulgaris; test: Antibacterial activity against Proteus vulgaris obtained from complicated skin and skin structure infections by agar dilution method
[46] = tested on: Providencia stuartii; test: Antibacterial activity against Providencia stuartii obtained from complicated skin and skin structure infections by agar dilution method
[47] = tested on: Salmonella; test: Antibacterial activity against Salmonella spp. obtained from complicated skin and skin structure infections by agar dilution method
[48] = tested on: Serratia marcescens; test: Antibacterial activity against Serratia marcescens obtained from complicated skin and skin structure infections by agar dilution method
[49] = tested on: Bacteroides fragilis; test: Antibacterial activity against Bacteroides fragilis obtained from complicated skin and skin structure infections by agar dilution method
[50] = tested on: Prevotella; test: Antibacterial activity against Prevotella spp. obtained from complicated skin and skin structure infections by agar dilution method
[51] = tested on: Veillonella; test: Antibacterial activity against Veillonella spp. obtained from complicated skin and skin structure infections by agar dilution method

For `C[C@H]1COc2c(N3CCN(C)CC3)c(F)cc3c(=O)c(C(=O)O)cn1c23.C[C@H]1COc2c(N3CCN(C)CC3)c(F)cc3c(=O)c(C(=O)O)cn1c23.O` [LEVOFLOXACIN], the MIC50 [1] was 4 µg/mL, the MIC90 [1] was 64 µg/mL and the MIC50 [2] was 4 µg/mL. The MIC90 [2] was 8 µg/mL, the MIC50 [3] was 4 µg/mL and the MIC90 [3] was 8 µg/mL. For the same compound, the MIC50 [4] was 4 µg/mL, the MIC90 [4] was 8 µg/mL and the MIC50 [5] was ≤ 0.06 µg/mL. The MIC90 [5] was 8 µg/mL, the MIC50 [6] was ≤ 0.06 µg/mL and the MIC90 [6] was 8 µg/mL. The MIC50 [7] was 0.12 µg/mL, the MIC90 [7] was 4 µg/mL and the MIC50 [8] was 4 µg/mL. The MIC90 [8] was 8 µg/mL, the MIC50 [9] was 0.12 µg/mL and the MIC90 [9] was 0.5 µg/mL. The MIC50 [10] was 0.12 µg/mL, the MIC90 [10] was 8 µg/mL and the MIC50 [11] was 0.12 µg/mL. It also gave an MIC90 [11] of 8 µg/mL, an MIC50 [12] of 0.12 µg/mL and an MIC90 [12] of 8 µg/mL. It also gave an MIC50 [13] of 0.12 µg/mL, an MIC90 [13] of 8 µg/mL and an MIC50 [14] of 0.12 µg/mL. The MIC90 [14] was 8 µg/mL, the MIC50 [15] was 0.12 µg/mL and the MIC90 [15] was 8 µg/mL. It also gave an MIC50 [16] of 0.12 µg/mL, an MIC90 [16] of 8 µg/mL and an MIC50 [17] of 0.12 µg/mL. It also gave an MIC90 [17] of 8 µg/mL, an MIC50 [18] of 0.12 µg/mL and an MIC90 [18] of 8 µg/mL. For the same compound, the MIC50 [19] was 0.25 µg/mL, the MIC90 [19] was > 8 µg/mL and the MIC50 [20] was 0.12 µg/mL. The MIC90 [20] was 0.25 µg/mL, the MIC50 [21] was 1 µg/mL and the MIC90 [21] was 2 µg/mL. For the same compound, the MIC50 [22] was 4 µg/mL, the MIC [23] was 0.5 µg/mL and the MIC50 [23] was 0.5 µg/mL. The MIC90 [23] was 1 µg/mL, the MIC50 [24] was 0.5 µg/mL and the MIC90 [24] was 0.5 µg/mL. The MIC50 [25] was 0.5 µg/mL, the MIC90 [25] was 0.5 µg/mL and the MIC50 [26] was 0.5 µg/mL. It also gave an MIC90 [26] of 0.5 µg/mL, an MIC [27] of 0.25 µg/mL and an MIC50 [27] of 0.25 µg/mL. The MIC90 [27] was 1 µg/mL, the MIC [28] was ≤ 0.03 µg/mL and the MIC50 [28] was ≤ 0.03 µg/mL. The MIC90 [28] was 0.12 µg/mL, the MIC [29] was ≤ 0.03 µg/mL and the MIC50 [29] was ≤ 0.03 µg/mL. It also gave an MIC90 [29] of 0.12 µg/mL, an MIC50 [30] of 0.5 µg/mL and an MIC90 [30] of 4 µg/mL. It also gave an MIC50 [31] of 0.5 µg/mL, an MIC90 [31] of 4 µg/mL and an MIC50 [32] of 0.5 µg/mL. The MIC90 [32] was 4 µg/mL, the MIC50 [33] was 0.5 µg/mL and the MIC90 [33] was 4 µg/mL. For the same compound, the MIC50 [34] was 0.5 µg/mL, the MIC90 [34] was 4 µg/mL and the MIC50 [35] was 0.5 µg/mL. The MIC90 [35] was 4 µg/mL, the MIC50 [36] was ≤ 0.06 µg/mL and the MIC90 [36] was 8 µg/mL. For the same compound, the MIC50 [37] was ≤ 0.06 µg/mL, the MIC90 [37] was 8 µg/mL and the MIC50 [38] was ≤ 0.06 µg/mL. The MIC90 [38] was 8 µg/mL, the MIC50 [39] was 0.06 µg/mL and the MIC90 [39] was 4 µg/mL. For the same compound, the MIC50 [40] was 0.03 µg/mL, the MIC90 [40] was 1 µg/mL and the MIC50 [41] was 0.06 µg/mL. It also gave an MIC90 [41] of 4 µg/mL, an MIC50 [42] of 1 µg/mL and an MIC90 [42] of 64 µg/mL. For the same compound, the MIC50 [43] was ≤ 0.06 µg/mL, the MIC90 [43] was > 8 µg/mL and the MIC50 [44] was ≤ 0.06 µg/mL. For the same compound, the MIC90 [44] was 8 µg/mL, the MIC50 [45] was ≤ 0.06 µg/mL and the MIC90 [45] was 8 µg/mL. The MIC50 [46] was ≤ 0.06 µg/mL, the MIC90 [46] was 8 µg/mL and the MIC50 [47] was ≤ 0.06 µg/mL. The MIC90 [47] was 8 µg/mL, the MIC50 [48] was ≤ 0.06 µg/mL and the MIC90 [48] was 8 µg/mL.
For `CO[C@@]1(NC(=O)Cc2cccs2)C(=O)N2C(C(=O)O)=C(COC(N)=O)CS[C@@H]21` [CEFOXITIN], the MIC [49] was ≤ 1 µg/mL, the MIC [50] was ≤ 1 µg/mL and the MIC [51] was ≤ 1 µg/mL.
